Experimental data as given in PMC6095626, “Screening of the Pathogen Box for inhibitors with dual efficacy against Giardia lamblia and Cryptosporidium parvum” (PLoS Neglected Tropical Diseases, 2018).
pEC50: −log10 of the molar value.

Key:
[1] = test system: G. lamblia trophozoites (luciferase expressing, WBC6); assay: microbe, parasite or virus in culture; type: cell-based, Giardia lamblia; settings: for Giardia (16 uM) Mean % inhibition: initial Pathogen Box screen, single concentration 16 µM, inhibition compared to DMSO wells; for G. lamblia inhibition of parasite growth in the initial screen: 16 μM
In short: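 Incubation ran 24 h at 37 °C under anaerobic conditions, with compound added in equal volume to trophozoites (WBC6, luciferase-expressing, 250,000 cells/mL). Bioluminescence was the read-out, cross-checked by MOXI Z counts on a duplicate plate; metronidazole served as control (1:2 dilutions from 40 μM).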

[2] = test system: C. parvum (UGA1 Nluc expressing strain in HCT-8 cells); assay: microbe, parasite or virus in culture; type: cell-based, Cryptosporidium parvum; settings: for Crypto (10 uM) Mean % inhibition: initial Pathogen Box screen, single concentration 10 µM, inhibition compared to DMSO wells; for C. parvum cell growth inhibition in the initial screen: 10 μM; for C. parvum cell growth inhibition in the initial screen / pEC50: 48 hours; for pEC50: Nluc C. parvum in HCT-8 cells, read-out: C. parvum EC50
In short: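 Parasite growth quantified by NanoLuc luminescence from lysed infected HCT-8 cells, with EC50 fitted from dose curves. Compounds, single-dose 10 μM or serially diluted, were added to confluent 48 h monolayers before infection with bleached UGA1 Nluc oocysts.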

[3] = luciferase expressing G. lamblia trophozoites, 24 hours, D-luciferin bioluminescence read-out

## O=C(C(Cc1c[nH]c2ccccc12)NS(=O)(=O)c1ccc(Cl)cc1)N1CCCCC1 (stereo not drawn) [MMV085210]
[1]
  Giardia (16 uM) Mean % inhibition: X* (Mean or standard deviation are negative but not significantly different from the control to be a growth promoter)
[2]
  Crypto (10 uM) Mean % inhibition: X* (Mean or standard deviation are negative but not significantly different from the control to be a growth promoter)

## CCCNC(=O)N1CCC2(CC1)CC(=O)c1cc(C)ccc1O2 [MMV085230]
[1]
  Giardia (16 uM) Mean % inhibition: 63%
[2]
  Crypto (10 uM) Mean % inhibition: 62%

## N#Cc1ccc(-c2cnc(N)c(-c3ccc(C(N)=O)cc3)n2)cc1 [MMV085499]
[1]
  Giardia (16 uM) Mean % inhibition: 61%
[2]
  C. parvum cell growth inhibition in the initial screen: ≥ 95%
  pEC50: 5.71
  Crypto (10 uM) Mean % inhibition: 95%

## CCOC(=O)NC(=O)c1ccsc1NC(=O)c1nc2ccccc2s1 [MMV090930]
[1]
  Giardia (16 uM) Mean % inhibition: 18%
[2]
  Crypto (10 uM) Mean % inhibition: 59%

## O=C(Nc1nnc(-c2ccc(Cl)cc2)o1)c1cccc(C(F)(F)F)c1 [MMV102872]
[1]
  Giardia (16 uM) Mean % inhibition: 35%
[2]
  C. parvum cell growth inhibition in the initial screen: ≥ 95%
  pEC50: 6.85
  Crypto (10 uM) Mean % inhibition: 95%

## CCC(C)NC(=O)c1ccc(NC(=O)C2(c3ccccc3)CCCC2)cc1 (stereo not drawn) [MMV146306]
[1]
  Giardia (16 uM) Mean % inhibition: X* (Mean or standard deviation are negative but not significantly different from the control to be a growth promoter)
[2]
  Crypto (10 uM) Mean % inhibition: 37%

## CCOC(=O)c1c(NC(=O)c2c(F)c(F)c(F)c(F)c2F)sc(C(N)=O)c1C [MMV153413]
[1]; 24 hours
  G. lamblia inhibition of parasite growth in the initial screen: ≥ 95%
[1]
  Giardia (16 uM) Mean % inhibition: 97%
[1]; [3]
  G. lamblia EC50: not potent
[2]
  Crypto (10 uM) Mean % inhibition: X* (Mean or standard deviation are negative but not significantly different from the control to be a growth promoter)

## Cc1cc(Cl)ccc1NC(=O)CCc1ccc(S(=O)(=O)NCC(C)C)cc1 [MMV161996]
[1]
  Giardia (16 uM) Mean % inhibition: X* (Mean or standard deviation are negative but not significantly different from the control to be a growth promoter)
[2]
  Crypto (10 uM) Mean % inhibition: 41%

## CNC(=O)C1Cc2ccccc2N1C(=O)Cc1ccc(F)cc1 (stereo not drawn) [MMV188296]
[1]
  Giardia (16 uM) Mean % inhibition: 33%
[2]
  Crypto (10 uM) Mean % inhibition: 54%

## COc1ccc(C2(C(=O)Nc3ccc(Br)cc3)CCCC2)cc1 [MMV200748]
[1]
  Giardia (16 uM) Mean % inhibition: 29%
[2]
  Crypto (10 uM) Mean % inhibition: X* (Mean or standard deviation are negative but not significantly different from the control to be a growth promoter)

## COc1ccc(OC(C)C(=O)Nc2ccc(Cl)cc2C)cc1 (stereo not drawn) [MMV202458]
[1]
  Giardia (16 uM) Mean % inhibition: 11%
[2]
  Crypto (10 uM) Mean % inhibition: X* (Mean or standard deviation are negative but not significantly different from the control to be a growth promoter)

## CCC(=O)Nc1ccccc1C(=O)Nc1ccccn1 [MMV202553]
[1]
  Giardia (16 uM) Mean % inhibition: 35%
[2]
  Crypto (10 uM) Mean % inhibition: 20%

## COc1cccc(NC(=O)c2c(NC(=O)c3cccnc3)sc3c2CCC3)c1 [MMV228911]
[1]
  Giardia (16 uM) Mean % inhibition: 37%
[2]
  Crypto (10 uM) Mean % inhibition: 39%

## COc1cccc(-n2nnnc2S(C)(=O)=O)c1 [MMV272144]
[1]
  Giardia (16 uM) Mean % inhibition: X* (Mean or standard deviation are negative but not significantly different from the control to be a growth promoter)
[2]
  Crypto (10 uM) Mean % inhibition: X* (Mean or standard deviation are negative but not significantly different from the control to be a growth promoter)

## COc1cccc(-c2cc3c(Nc4cccnc4)nccc3[nH]2)c1 [MMV392832]
[1]
  Giardia (16 uM) Mean % inhibition: 50%
[2]
  Crypto (10 uM) Mean % inhibition: 68%

## CN1CCN(c2nccc3[nH]c(-c4cccc(F)c4)cc23)CC1 [MMV393144]
[1]
  Giardia (16 uM) Mean % inhibition: 77%
[2]
  Crypto (10 uM) Mean % inhibition: 50%

## Cc1cc(=O)[nH]c(-n2nc(C)cc2C)n1 [MMV393995]
[1]
  Giardia (16 uM) Mean % inhibition: X* (Mean or standard deviation are negative but not significantly different from the control to be a growth promoter)
[2]
  Crypto (10 uM) Mean % inhibition: 86%

## CCc1nc2ccc(C(=O)NCc3ccc4c(c3)OCO4)cn2c1N(C)Cc1cccs1 [MMV407539]
[1]
  Giardia (16 uM) Mean % inhibition: 17%
[2]
  Crypto (10 uM) Mean % inhibition: 59%

## CCOc1ccccc1NC(C)C(=O)Nc1cc(C(F)(F)F)ccc1N1CCOCC1 (stereo not drawn) [MMV407834]
[1]
  Giardia (16 uM) Mean % inhibition: 33%
[2]
  Crypto (10 uM) Mean % inhibition: X* (Mean or standard deviation are negative but not significantly different from the control to be a growth promoter)

## COC(=O)c1c(NC(=O)c2c(F)c(F)c(F)c(F)c2F)sc2c1CCCCC2 [MMV461553]
[1]
  Giardia (16 uM) Mean % inhibition: 33%
[2]
  Crypto (10 uM) Mean % inhibition: 49%

## CS(=O)(=O)Cc1nc2ccccc2oc1=O [MMV553002]
[1]
  Giardia (16 uM) Mean % inhibition: 12%
[2]
  Crypto (10 uM) Mean % inhibition: 74%

## c1ccc(-c2cc(N3CCCCC3)c3ccccc3n2)nc1 [MMV560185]
[1]
  Giardia (16 uM) Mean % inhibition: X* (Mean or standard deviation are negative but not significantly different from the control to be a growth promoter)
[2]
  Crypto (10 uM) Mean % inhibition: 47%

## CCN(CC)S(=O)(=O)c1ccc(C(=O)Nc2cc(C)nn2-c2nc(C)c(C)c(=O)[nH]2)cc1 [MMV595321]
[1]
  Giardia (16 uM) Mean % inhibition: 26%
[2]
  Crypto (10 uM) Mean % inhibition: 92%

## CCC(Sc1nc2ccccc2o1)C(=O)Nc1nnc(C)s1 (stereo not drawn) [MMV611037]
[1]
  Giardia (16 uM) Mean % inhibition: 46%
[2]
  Crypto (10 uM) Mean % inhibition: X* (Mean or standard deviation are negative but not significantly different from the control to be a growth promoter)

## O=C(NCCN1CCCC1)c1cc(NCCN2CCOCC2)nc2ccc(Cl)cc12 [MMV634140]
[1]
  Giardia (16 uM) Mean % inhibition: 27%
[2]
  Crypto (10 uM) Mean % inhibition: X* (Mean or standard deviation are negative but not significantly different from the control to be a growth promoter)

## Cc1ccc(C(=O)Nc2ccc(S(=O)(=O)O)c3cc(S(=O)(=O)O)cc(S(=O)(=O)O)c23)cc1NC(=O)c1cccc(NC(=O)Nc2cccc(C(=O)Nc3cc(C(=O)Nc4ccc(S(=O)(=O)O)c5cc(S(=O)(=O)O)cc(S(=O)(=O)O)c45)ccc3C)c2)c1 [MMV637953]
[1]
  Giardia (16 uM) Mean % inhibition: 10%
[2]
  Crypto (10 uM) Mean % inhibition: 36%

## O=C(Nc1ccc2c(c1)B(O)OC2)c1ccccc1C(F)(F)F [MMV652003]
[1]
  Giardia (16 uM) Mean % inhibition: 14%
[2]
  Crypto (10 uM) Mean % inhibition: 94%

## Cc1nc(-c2ccccn2)nc(N(C)CCc2ccccc2)c1Cl [MMV658988]
[1]
  Giardia (16 uM) Mean % inhibition: X* (Mean or standard deviation are negative but not significantly different from the control to be a growth promoter)
[2]
  Crypto (10 uM) Mean % inhibition: 33%

## Cc1nc(-c2ccccn2)nc(NCCc2ccc(S(C)(=O)=O)cc2)c1Cl [MMV658993]
[1]
  Giardia (16 uM) Mean % inhibition: 11%
[2]
  Crypto (10 uM) Mean % inhibition: X* (Mean or standard deviation are negative but not significantly different from the control to be a growth promoter)

## Cc1nc(-c2ccccn2)nc(N2CCC(Cc3ccccc3)C2)c1Cl (stereo not drawn) [MMV659004]
[1]
  Giardia (16 uM) Mean % inhibition: 13%
[2]
  Crypto (10 uM) Mean % inhibition: 66%

## FC(F)(F)c1cc(NCCc2ccccc2)nc(-c2ccccn2)n1 [MMV659010]
[1]
  Giardia (16 uM) Mean % inhibition: 41%
[2]
  Crypto (10 uM) Mean % inhibition: 15%

## Brc1cncc(-c2cc(NCCCn3ccnc3)nc(-c3ccccc3)n2)c1 [MMV661713]
[1]
  Giardia (16 uM) Mean % inhibition: X* (Mean or standard deviation are negative but not significantly different from the control to be a growth promoter)
[2]
  Crypto (10 uM) Mean % inhibition: X* (Mean or standard deviation are negative but not significantly different from the control to be a growth promoter)

## Clc1cccc(C(c2ccc(CN3CCNCC3)cc2)n2ccnc2)c1 (stereo not drawn) [MMV663250]
[1]
  Giardia (16 uM) Mean % inhibition: 14%
[2]
  Crypto (10 uM) Mean % inhibition: 52%

## O=C(NCCN1CCCC1)c1cc(NCCCCN2CCC(F)(F)CC2)nc2ccc(Cl)cc12 [MMV667494]
[1]
  Giardia (16 uM) Mean % inhibition: 82%
[2]
  Crypto (10 uM) Mean % inhibition: X* (Mean or standard deviation are negative but not significantly different from the control to be a growth promoter)

## Nc1ncc(-c2ccc(C(F)(F)F)nc2)cc1-c1ccc(C(F)(F)F)nc1 [MMV668727]
[1]
  Giardia (16 uM) Mean % inhibition: 0.605%
[2]
  Crypto (10 uM) Mean % inhibition: 82%

## Cc1[nH]c2cc(F)cc(F)c2c(=O)c1-c1ccc(Oc2ccc(OC(F)(F)F)cc2)cc1 [MMV671636]
[1]
  Giardia (16 uM) Mean % inhibition: 18%
[2]
  Crypto (10 uM) Mean % inhibition: X* (Mean or standard deviation are negative but not significantly different from the control to be a growth promoter)

## COc1ccc(OC)c(NCc2ccc3nc(N)nc(N)c3c2Cl)c1 [MMV675968]
[1]; 24 hours
  G. lamblia inhibition of parasite growth in the initial screen: 90%
[1]; [3]
  G. lamblia EC50: not potent
[1]; luciferase expressing G. lamblia trophozoites, 24 hours, D-luciferin bioluminescence read-out, read-out: G. lamblia EC50
  pEC50: < 5.00
[2]
  C. parvum cell growth inhibition in the initial screen: 88%
  pEC50: 5.68

## CC(C)(C)c1ccc(N[C@@H]2CCCC[C@H]2NC(=O)c2ccco2)cc1 [MMV675969]
[1]
  Giardia (16 uM) Mean % inhibition: 32%
[2]
  Crypto (10 uM) Mean % inhibition: X* (Mean or standard deviation are negative but not significantly different from the control to be a growth promoter)

## COc1ccc(-c2nn(C(C)C)c3ncnc(N)c23)cc1OC [MMV675993]
[1]
  Giardia (16 uM) Mean % inhibition: X* (Mean or standard deviation are negative but not significantly different from the control to be a growth promoter)
[2]
  Crypto (10 uM) Mean % inhibition: 89%

## Clc1ccc(-n2cc(COc3ccnc4ccccc34)nn2)cc1 [MMV675994]
[1]
  Giardia (16 uM) Mean % inhibition: 15%
[2]
  Crypto (10 uM) Mean % inhibition: 94%

## COc1ccc(N(CCc2cccc(C)n2)C(C)=O)cc1 [MMV675995]
[1]
  Giardia (16 uM) Mean % inhibition: 26%
[2]
  Crypto (10 uM) Mean % inhibition: 26%

## COc1ccc(N(CCc2cccc(C)n2)C(=O)C2CCCCC2)cc1 [MMV675996]
[1]
  Giardia (16 uM) Mean % inhibition: 16%
[2]
  Crypto (10 uM) Mean % inhibition: X* (Mean or standard deviation are negative but not significantly different from the control to be a growth promoter)
